Test results from ChEMBL document CHEMBL3797038, “Synthesis and pharmacological evaluation of new biphenylic derivatives as CB2 receptor ligands” (Eur J Med Chem, 2016).
The source made the active and inactive calls. The rule behind the calls is not given here.

Tests used:
Cannabinoid receptor 2 [1] = biological target: T1, Cannabinoid receptor 2 (Homo sapiens, UniProt P34972); assay: Displacement of [3H]CP55940 from human CB2 receptor expressed in CHO cell membranes after 2 hrs
Cannabinoid receptor 2 [2] = biological target: T1, Cannabinoid receptor 2; assay: Neutral antagonist activity at human CB2 receptor expressed in CHO cell membranes after 90 mins by [35S]GTPgammaS binding assay; assay type: functional
Cannabinoid receptor 1 = Cannabinoid receptor 1 (Homo sapiens, UniProt P21554); assay: Displacement of [3H]CP55940 from human CB1 receptor expressed in CHO cell membranes after 2 hrs
Cannabinoid receptor 1, sequence (P21554 whole entry): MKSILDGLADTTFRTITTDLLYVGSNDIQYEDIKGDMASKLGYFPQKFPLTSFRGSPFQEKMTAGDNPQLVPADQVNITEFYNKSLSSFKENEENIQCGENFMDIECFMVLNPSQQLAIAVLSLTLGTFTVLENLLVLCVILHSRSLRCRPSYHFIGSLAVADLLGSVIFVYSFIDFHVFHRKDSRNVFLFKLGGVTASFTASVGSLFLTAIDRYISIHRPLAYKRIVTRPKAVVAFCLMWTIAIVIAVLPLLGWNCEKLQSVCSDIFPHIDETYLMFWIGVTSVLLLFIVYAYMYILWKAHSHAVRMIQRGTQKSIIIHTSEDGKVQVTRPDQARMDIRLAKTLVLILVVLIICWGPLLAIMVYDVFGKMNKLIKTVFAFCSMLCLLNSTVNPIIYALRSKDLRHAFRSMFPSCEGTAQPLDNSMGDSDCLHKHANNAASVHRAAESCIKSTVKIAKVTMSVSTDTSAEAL

CHO = assay: Selectivity index, ratio of Ki for human CB1 receptor expressed in CHO cell membranes to Ki for human CB2 receptor expressed in CHO cell membranes; assay type: cell-based
Cannabinoid receptor 2 [3] = biological target: T1, Cannabinoid receptor 2; assay: Inverse agonist activity at human CB2 receptor expressed in CHO cell membranes after 90 mins by [35S]GTPgammaS binding assay; assay type: functional
Cannabinoid receptor 2 [4] = biological target: T1, Cannabinoid receptor 2; assay: Agonist activity at human CB2 receptor expressed in CHO cell membranes after 90 mins by [35S]GTPgammaS binding assay; assay type: functional
Cannabinoid receptor 2 [5] = biological target: T1, Cannabinoid receptor 2; assay: Protean agonist activity at human CB2 receptor expressed in CHO cell membranes after 90 mins by [35S]GTPgammaS binding assay; assay type: functional
Cannabinoid receptor 2 [6] = biological target: T1, Cannabinoid receptor 2; assay: Competitive antagonist activity at human CB2 receptor expressed in CHO cell membranes assessed as inhibition of N-cycloheptyl-4-methoxy-5-methylbiphenyl-3-carboxamide-mediated receptor stimulation by [35S]GTPgammaS binding assay; assay type: functional
Cannabinoid receptor 2 [7] = biological target: T1, Cannabinoid receptor 2; assay: Inhibition of N-cycloheptyl-4-methoxy-5-methylbiphenyl-3-carboxamide maximal response at human CB2 receptor expressed in CHO cell membranes by [35S]GTPgammaS binding assay; assay type: functional
Cannabinoid receptor 2 [8] = biological target: T1, Cannabinoid receptor 2; assay: Antagonist activity at human CB2 receptor expressed in CHO cell membranes assessed as inhibition of HU-210 mediated-stimulation at 1 to 10 uM by [35S]GTPgammaS binding assay; assay type: functional
Cannabinoid receptor 2 [9] = biological target: T1, Cannabinoid receptor 2; assay: Neutral antagonist activity at human CB2 receptor expressed in CHO cell membranes up to 10 uM after 90 mins by [35S]GTPgammaS binding assay; assay type: functional

T1 sequence (P34972 whole entry): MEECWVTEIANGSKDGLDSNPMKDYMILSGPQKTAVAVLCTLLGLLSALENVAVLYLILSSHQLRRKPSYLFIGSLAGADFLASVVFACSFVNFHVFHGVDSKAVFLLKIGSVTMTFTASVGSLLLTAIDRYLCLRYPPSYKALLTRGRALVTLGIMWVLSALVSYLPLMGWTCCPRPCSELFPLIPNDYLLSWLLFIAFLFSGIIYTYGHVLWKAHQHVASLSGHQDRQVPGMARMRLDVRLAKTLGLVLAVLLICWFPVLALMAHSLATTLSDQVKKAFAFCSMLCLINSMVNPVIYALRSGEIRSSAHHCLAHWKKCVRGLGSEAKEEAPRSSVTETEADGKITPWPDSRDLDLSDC

Structure (SMILES) | Ki (Cannabinoid receptor 2 [1]) | Ki (Cannabinoid receptor 1) | Selectivity Index (CHO) | also measured
C=CCc1ccc(OCCCC)c(-c2ccc(OCCCC)c(CC=C)c2)c1 | 1780 nM | – | – | Neutral antagonist activity (Cannabinoid receptor 2 [2]): Active
C=CCc1ccc(O)c(-c2ccc(OCCCC)c(CC=C)c2)c1 | 103 nM | 615 nM | – | Neutral antagonist activity (Cannabinoid receptor 2 [2]): Active
COc1c(Cc2ccc(F)cc2)cc(-c2ccc(F)cc2)cc1C(=O)N[C@H]1CC[C@H](C)CC1 | 1090 nM | 1850 nM | 1.7 | –
COc1ccc(-c2cc(Cc3ccc(F)cc3)c(OC)c(C(=O)N[C@H]3CC[C@H](C)CC3)c2)cc1 | 811 nM | 1170 nM | 1.4 | –
C=CCc1cc(NC(=O)CCCCCCCCCCCCCCCCC)c(O)c(-c2ccc(OC)c(CC=C)c2)c1 | > 10000 nM | – | – | –
CCCCc1cc(-c2ccccc2)cc(C(=O)N[C@H]2CC[C@H](C)CC2)c1OC | 2390 nM | 3610 nM | – | –
COc1c(Cc2ccc(F)cc2)cc(-c2ccccc2)cc1C(=O)N[C@H]1CC[C@@H](C)CC1 | 1110 nM | 826 nM | 1.3 | –
COc1ccc(-c2cc(Cc3ccc(F)cc3)c(OC)c(C(=O)NC3CCCCCC3)c2)cc1 | ≥ 10000 nM | ≥ 10000 nM | – | Neutral antagonist activity (Cannabinoid receptor 2 [2]): Active
COc1ccc(-c2cc(C)c(OC)c(C(=O)NC3CCCCCC3)c2)cc1 | 2740 nM | 16500 nM | 6.1 | Neutral antagonist activity (Cannabinoid receptor 2 [2]): Active
COc1c(Cc2ccc(F)cc2)cc(-c2ccc(F)cc2)cc1C(=O)N[C@H]1CC[C@@H](C)CC1 | 337 nM | 1070 nM | 3.2 | –
CCCCc1cc(-c2ccc(F)cc2)cc(C(=O)NC2CCCCCC2)c1OC | 166 nM | 6110 nM | 36.8 | Activity (Cannabinoid receptor 2 [3]): Active
C=CCc1ccc(O)c(-c2ccc(OC)c(CC=C)c2)c1 | – | – | – | Activity (Cannabinoid receptor 2 [4]): Active
COc1c(Cc2ccccc2)cc(-c2ccccc2)cc1C(=O)NC1CCCCCC1 | 594 nM | 1560 nM | 2.6 | Activity (Cannabinoid receptor 2 [3]): Active
CCCCc1cc(-c2ccccc2)cc(C(=O)N[C@H]2CC[C@@H](C)CC2)c1OC | 1260 nM | 549 nM | – | –
CCCCc1cc(-c2ccccc2)cc(C(=O)NC2CCCCCC2)c1OC | 352 nM | 1860 nM | 5.3 | Activity (Cannabinoid receptor 2 [3]): Active
COc1c(C)cc(-c2ccccc2)cc1C(=O)NC1CCCCCC1 | 148 nM | 656 nM | 4.5 | Activity (Cannabinoid receptor 2 [4]): Active

Structure (SMILES) | Ki (Cannabinoid receptor 2 [1]) | Ki (Cannabinoid receptor 1) | Selectivity Index (CHO) | also measured
COc1c(Cc2ccc(F)cc2)cc(-c2ccccc2)cc1C(=O)N[C@H]1CC[C@H](C)CC1 | 2620 nM | 3090 nM | 1.2 | –
C=CCc1ccc(O)c(-c2ccc(O)c(CC=C)c2)c1 | – | – | – | Neutral antagonist activity (Cannabinoid receptor 2 [2]): Active; Activity (Cannabinoid receptor 2 [3]): Active
COc1c(Cc2ccccc2)cc(-c2ccccc2)cc1C(=O)N[C@H]1CC[C@H](C)CC1 | 4810 nM | 2500 nM | – | –
COc1c(Cc2ccccc2)cc(-c2ccccc2)cc1C(=O)N[C@H]1CC[C@@H](C)CC1 | 2670 nM | – | – | –
CCCCc1cc(-c2ccc(F)cc2)cc(C(=O)N[C@H]2CC[C@H](C)CC2)c1OC | 1760 nM | ≥ 10000 nM | > 5.8 | –
COc1c(Cc2ccc(F)cc2)cc(-c2ccccc2)cc1C(=O)NC1CCCCCC1 | 84.1 nM | 904 nM | 10.7 | Activity (Cannabinoid receptor 2 [3]): Active
CCCCc1cc(-c2ccc(F)cc2)cc(C(=O)N[C@H]2CC[C@@H](C)CC2)c1OC | 1410 nM | 2520 nM | 1.8 | –
COc1c(C)cc(-c2ccc(F)cc2)cc1C(=O)NC1CCCCCC1 | – | – | – | Activity (Cannabinoid receptor 2 [4]): Active
C=CCc1ccc(OC)c(-c2ccc(O)c(CC=C)c2)c1 | – | – | – | Activity (Cannabinoid receptor 2 [4]): Active
COc1c(Cc2ccc(F)cc2)cc(-c2ccc(F)cc2)cc1C(=O)NC1CCCCCC1 | 265 nM | 2830 nM | 10.7 | Activity (Cannabinoid receptor 2 [3]): Active
C=CCc1cc(NC(=O)CCCCCCCCCCC)c(O)c(-c2ccc(OC)c(CC=C)c2)c1 | > 10000 nM | – | – | –
C=CCc1ccc(OC)c(-c2ccc(OC)c(CC=C)c2)c1 | 1380 nM | – | – | Activity (Cannabinoid receptor 2 [4]): Active
C=CCc1ccc(OCCCC)c(-c2ccc(O)c(CC=C)c2)c1 | – | – | – | Activity (Cannabinoid receptor 2 [5]): Active
COc1ccc(-c2cc(Cc3ccc(F)cc3)c(OC)c(C(=O)N[C@H]3CC[C@@H](C)CC3)c2)cc1 | 196 nM | 380 nM | 2 | inhibition (Cannabinoid receptor 2 [6]): Dose-dependent effect; inhibition (Cannabinoid receptor 2 [7]): inactive
C=CCc1cc(NC(C)=O)c(O)c(-c2ccc(OC)c(CC=C)c2)c1 | > 10000 nM | – | – | –
CCCCc1cc(-c2ccc(OC)cc2)cc(C(=O)NC2CCCCCC2)c1OC | 249 nM | – | – | Neutral antagonist activity (Cannabinoid receptor 2 [2]): Active; inhibition (Cannabinoid receptor 2 [8]): Active; inhibition (Cannabinoid receptor 2 [9]): Active
